Source: patent US9403797B2, “5-(pyridin-2-yl-amino)-pyrazine-2-carbonitrile compounds and their therapeutic use” (Cancer Research Technology Limited, priority 2011, dated 2016)
Read-outs that look alike come from different tables or passages of the source. Each block holds one compound with its values, some of them ahead of it.

Legend:
[1] = system: HT29 human colon carcinoma xenograft; test: In Vivo Study 2: combination with gemcitabine in HT29 human colon carcinoma xenograft; set-up: species or system mouse; conditions: for Tumour growth inhibition relative to controls / T/C vs. vehicle controls: day 24; for T/C vs. vehicle controls: tumour volumes; for Mean tumour volume (cm^3, mean ± SEM): day 24 after start of therapy, PAPC-A-01 75 mg/kg p.o., gemcitabine 100 mg/kg i.v.
Method: In Vivo Study 2: PAPC-A-01 in Combination with Gemcitabine in HT29 Human Colon Carcinoma Xenograft
Animals weighed 20.3±2.0 g at the start of the study. Handing and all experimental procedures were performed under sterile conditions in laminar flow hoods in accordance with UK Home Office, national and local ethical guidelines.
HT29 colon carcinoma cells from the American Type Culture Collection (ATCC, LGC Promochem, Middesex, UK) were harvested from tissue culture flasks and injected subcutaneously in the right flanks of mice (3 million cells per site). Once tumours were established (mean diameter 0.55±0.05 cm) mice were randomised to treatment groups (n=6) to receive (a) test compound (PAPC-A-01) (75 mg/kg), (b) gemcitabine (100 mg/kg), (c) a combination (PAPC-A-01) (75 mg/kg) and gemcitabine (100 mg/kg), or (d) relevant vehicles.
Clinical grade gemcitabine hydrochloride (GEMZAR, Eli Lilly, Newmarket, UK) was reconstituted in sterile 0.9% sodium chloride and aliquots frozen at −20° C. Gemcitabine was administered intravenously once weekly via a lateral tail vein on days 0 (day 5 after tumour cell implantation), 7 and 14. Test compound (PAPC-A-01) was dissolved in 10% DMSO and diluted out in 5% Tween 20, 85% saline. Test compound (PAPC-A-01) was administered by oral gavage on days 1, 2, 8, 9, 15 and 16. The control animals received both vehicles by the appropriate route on the designated days. The compounds were administered in a volume of 100 μL per 10 g body weight.
Animals were observed daily and body weights and tumours measured three times weekly. Two perpendicular tumour diameters were used to calculate volumes using the formula: V=4/3π[(d1+d2)/4]^3.
T/C values (volumes of treated tumours vs. controls) were calculated with respect to vehicle control tumours or those treated with gemcitabine alone, expressed as a percentage.

TH-MYCN neuroblastoma = test: In Vivo Study 1: transgenic MYCN-driven neuroblastoma model; set-up: species or system mouse
Method: In Vivo Study 1: PAPC-A-01 in Transgenic MYCN-Driven Neuroblastoma Model
Spontaneous neuroblastomas arising in hemizygous mice transgenic for TH-MYCN (human MYCN under the control of the rat tyrosine hydroxylase promoter) were detected by abdominal palpation. Sequential animals with well-established tumours (30-70 days of age) were randomised to receive either test compound (PAPC-A-01) or vehicle until 8-9 mice per group were accrued. The test compound (PAPC-A-01) was administered as a single agent at 100 mg/kg p.o. daily for 7 consecutive days by oral gavage (100 μL/10 g body weight) and controls received an equivalent volume of vehicle (10% DMSO, 5% Tween 20, 85% saline). Neuroblastoma size was assessed by MRI and by the mass of tumours dissected from the abdominal cavity at the end of therapy.
^1H MRI was performed on a 7T Bruker horizontal bore microimaging system (Bruker Instruments, Ettlingen, Germany) using a 3 cm birdcage coil. Anaesthesia was induced a combination of fentanyl citrate (0.315 mg/mL) plus fluanisone (10 mg/mL) (Hypnorm, Janssen Pharmaceutical, Oxford, UK) and midazolam (5 mg/mL) (Roche, Welwyn Garden City, UK) and water (1:1:2). Animal body temperature was maintained by a warm air blower through the magnet bore.
Anatomical T2-weighted coronal and transverse images were acquired from twenty contiguous 1 mm-thick coronal slices through the mouse abdomen, using a rapid acquisition with refocused echoes (RARE) sequence with 4 averages of 128 phase encoding steps over a 3×3 cm field of view, two echoes of 36 and 132 ms, a TR of 4.5 s and a RARE factor of 8. Following MRI, the mice were left to recover on a heat mat for 24 hours. Tumour volumes were measured using segmentation from regions of interest drawn on every slice from the coronal T2 weighted images containing tumour using in-house software (ImageView, working under IDL, ITT, Boulder, Colo., USA).

CHK1 = CHK1 (Homo sapiens (Human), UniProt O14757); test: Inhibitor potency vs. CHK1 (Assay 1A DELFIA or Assay 1B Caliper format); format: biochemical
CHK1, sequence (O14757 whole entry): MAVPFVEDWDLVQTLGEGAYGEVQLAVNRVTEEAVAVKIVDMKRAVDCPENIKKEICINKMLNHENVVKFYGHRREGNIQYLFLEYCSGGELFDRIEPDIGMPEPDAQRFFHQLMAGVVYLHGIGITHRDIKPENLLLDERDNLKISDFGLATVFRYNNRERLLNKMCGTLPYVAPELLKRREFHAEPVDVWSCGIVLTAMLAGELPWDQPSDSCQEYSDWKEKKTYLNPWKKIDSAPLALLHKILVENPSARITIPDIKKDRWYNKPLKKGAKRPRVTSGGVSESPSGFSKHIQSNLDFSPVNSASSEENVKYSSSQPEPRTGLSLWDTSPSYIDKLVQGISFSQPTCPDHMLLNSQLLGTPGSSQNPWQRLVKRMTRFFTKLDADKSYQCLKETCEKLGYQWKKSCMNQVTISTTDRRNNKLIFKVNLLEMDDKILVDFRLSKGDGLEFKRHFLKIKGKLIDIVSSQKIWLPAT
Method: Assay 1A: Determination of Inhibitor Potency vs. CHK1 in DELFIA Assay Format
CHK1 kinase function was measured in a DELFIA® assay in order to monitor phosphorylation of a CDC25C peptide using a specific phospho antibody. […] The reaction mixture was incubated for 30 minutes at room temperature and then stopped by the addition of buffer (125 μL) containing 40 mM EDTA, 0.05% Tween 20, 0.1% BSA in TBS (10× concentrate, Sigma). An aliquot (100 μL) of the stopped reaction mixture was transferred to a black neutravidin-coated plate (Perbio) and incubated for 1 hour on a shaker (Titertek, Flow Laboratories) at room temperature. […] The plates were washed a further four times with wash buffer before the addition of enhancement solution (100 μL/well, PerkinElmer Life Sciences).
Assay 1B: Determination of Inhibitor Potency Vs. CHK1 in Caliper Assay Format
CHK1 kinase activity was measured in a microfluidic assay that monitors the separation of a phosphorylated product from its substrate. […] For each test compound a 50 μM stock concentration in 100% DMSO was used. […] The plate was sealed and centrifuged (1 minutes, 1000 rpm) before incubation for one hour at room temperature. The reaction was stopped by the addition of separation buffer (90 μL). […] IC50 values were calculated in GraphPad Prism5 using a non linear regression fit of the log (inhibitor) vs. response with variable slope equation.

CHK2 = CHK2 (Homo sapiens (Human), UniProt O96017); test: Inhibitor selectivity for inhibition of CHK1 vs. CHK2 (Assay 2, CHK2 DELFIA assay); format: biochemical; conditions: CHK2 IC50/CHK1 IC50
CHK2, sequence (O96017 whole entry): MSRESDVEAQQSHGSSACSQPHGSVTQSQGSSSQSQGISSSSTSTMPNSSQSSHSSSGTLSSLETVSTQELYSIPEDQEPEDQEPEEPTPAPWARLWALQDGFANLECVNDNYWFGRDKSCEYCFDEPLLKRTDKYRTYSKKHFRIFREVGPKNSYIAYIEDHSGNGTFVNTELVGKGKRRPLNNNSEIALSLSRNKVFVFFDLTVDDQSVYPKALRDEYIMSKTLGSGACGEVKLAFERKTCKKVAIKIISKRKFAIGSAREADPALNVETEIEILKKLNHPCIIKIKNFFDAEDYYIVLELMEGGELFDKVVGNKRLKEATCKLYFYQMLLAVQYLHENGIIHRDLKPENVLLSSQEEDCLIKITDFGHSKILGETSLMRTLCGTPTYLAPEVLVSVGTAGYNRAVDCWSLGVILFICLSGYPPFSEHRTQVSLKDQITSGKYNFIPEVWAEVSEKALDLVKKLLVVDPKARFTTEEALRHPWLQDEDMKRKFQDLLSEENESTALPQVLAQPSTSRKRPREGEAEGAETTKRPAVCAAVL
Method: The plates were washed a further four times with wash buffer before the addition of enhancement solution (100 μL/well, PerkinElmer Life Sciences).

in vivo = conditions: female, BALB/c, mouse, Oral bioavail. (plasma concentration, 1 hour following 10 mg/kg p.o.)
HT29 cells = test: Mitosis Inhibition Assay (MIA), checkpoint abrogation; conditions: Homo sapiens, HT-29, read-out: MIA IC50
[2] = Comparative oral bioavailability by limited sampling in vivo pharmacokinetics; conditions: female, BALB/c, mouse, plasma, 10 mg/kg, Oral bioavail. (plasma concentration, 1 hour following 10 mg/kg p.o.), female BALB/c mice, expressed relative to 10 mg/kg p.o.
[3] = Assay 1A (DELFIA) or Assay 1B (Caliper), read-out: CHK1 IC50

IC50 (CHK1): < 20 nM
SMILES: CNc1cc(Nc2cnc(C#N)c(O[C@H](C)CN(C)C)n2)ncc1C#CC(C)(C)O [PAPC-A-08, (R)-3-((1-(Dimethylamino)propan-2-yl)oxy)-5-((5-(3-hydroxy-3-methylbut-1-yn-1-yl)-4-(methylamino)pyridin-2-yl)amino)pyrazine-2-carbonitrile]

IC50 (CHK1): < 20 nM
SMILES: CNc1cc(Nc2cnc(C#N)c(O[C@H](C)CN(C)C)n2)ncc1C(=O)OC [PAPC-A-10, (R)-Methyl 6-((5-cyano-6-((1-(dimethylamino)propan-2-yl)oxy)pyrazin-2-yl)amino)-4-(methylamino)nicotinate]

IC50 (CHK1): < 20 nM
SMILES: COc1cc(Nc2cnc(C#N)c(O[C@@H]3CCN(C)C3)n2)ncc1-c1cnn(C)c1 [PAPC-B-02, (R)-5-((4-Methoxy-5-(1-methyl-1H-pyrazol-4-yl)pyridin-2-yl)amino)-3-((1-methylpyrrolidin-3-yl)oxy)pyrazine-2-carbonitrile]

IC50 (HT29 cells): < 500 nM
SMILES: CNc1cc(Nc2cnc(C#N)c(O[C@H]3CCNC3)n2)ncc1-c1cnn(C)c1 [PAPC-B-04, (S)-5-((5-(1-Methyl-1H-pyrazol-4-yl)-4-(methylamino)pyridin-2-yl)amino)-3-(pyrrolidin-3-yloxy)pyrazine-2-carbonitrile]

IC50 (CHK1): < 20 nM
concentration at 1 h (in vivo): ≥ 10 nM
SMILES: CNc1cc(Nc2cnc(C#N)c(O[C@H]3CCN(C)C3)n2)ncc1-c1cnn(C)c1 [PAPC-B-06, (S)-5-((5-(1-Methyl-1H-pyrazol-4-yl)-4-(methylamino)pyridin-2-yl)amino)-3-((1-methylpyrrolidin-3-yl)oxy)pyrazine-2-carbonitrile]

IC50 (CHK1): < 20 nM
SMILES: COC(=O)c1cnc(Nc2cnc(C#N)c(O[C@@H]3CCNC3)n2)cc1N(C)C [PAPC-B-11, (R)-Methyl 6-((5-cyano-6-(pyrrolidin-3-yloxy)pyrazin-2-yl)amino)-4-(dimethylamino)nicotinate]

The remaining lines, values behind:

SMILES: Nc1ccn([C@@H]2O[C@H](CO)[C@@H](O)C2(F)F)c(=O)n1 [Gemcitabine, reference compound]
Tumour growth inhibition relative to controls [1]: approximately 20%
T/C vs. vehicle controls [1]: 80.8%
Mean tumour volume (cm^3, mean ± SEM) [1]: 0.888 ± 0.188 cm^3

SMILES: COc1cc(Nc2cnc(C#N)c(O[C@H](C)CN(C)C)n2)ncc1-c1cnn(C)c1 [PAPC-A-01, (R)-3-((1-(Dimethylamino)propan-2-yl)oxy)-5-((4-methoxy-5-(1-methyl-1H-pyrazol-4-yl)pyridin-2-yl)amino)pyrazine-2-carbonitrile]
T/C (tumour weight) (TH-MYCN neuroblastoma; 100 mg/kg p.o. daily for 7 days): 13.4%
MR imaging in individual mice, pre-treatment and on day 7 (TH-MYCN neuroblastoma; 7 day treatment period, 100 mg/kg p.o. daily): tumour regression
Mean weight of tumours at the end of the study (TH-MYCN neuroblastoma; mean±SD, 100 mg/kg p.o. daily for 7 days, control 2.1±0.7 g): 0.3 ± 0.2 g
Tumour volume (MRI) (TH-MYCN neuroblastoma; one mouse, following 7 days treatment, 100 mg/kg p.o. daily, pre-treatment volume 1960 mm^3): 417 mm^3
IC50 (CHK1): < 20 nM
IC50 (CHK1; [3]): 6 nM
Tumour growth inhibition relative to controls [1]: no growth inhibition
T/C vs. vehicle controls [1]: 101.4%
Mean tumour volume (cm^3, mean ± SEM) [1]: 1.114 ± 0.257 cm^3
CHK1 vs. CHK2 selectivity (CHK2): 540-fold

SMILES: C[C@H](CN(C)C)Oc1nc(Nc2cc(N(C)C)c(-c3cnn(C)c3)cn2)cnc1C#N [PAPC-A-03, (R)-5-((4-(Dimethylamino)-5-(1-methyl-1H-pyrazol-4-yl)pyridin-2-yl)amino)-3-((1-(dimethylamino)propan-2-yl)oxy)pyrazine-2-carbonitrile]
IC50 (CHK1; [3]): < 20 nM

SMILES: CNc1cc(Nc2cnc(C#N)c(O[C@H](C)CN(C)C)n2)ncc1C1CC1 [PAPC-A-09, (R)-5-((5-Cyclopropyl-4-(methylamino)pyridin-2-yl)amino)-3-((1-(dimethylamino)propan-2-yl)oxy)pyrazine-2-carbonitrile]
concentration at 1 h (in vivo): ≥ 10 nM

SMILES: COc1cc(Nc2cnc(C#N)c(O[C@@H]3CCNC3)n2)ncc1-c1cnn(C)c1 [PAPC-B-01, (R)-5-((4-Methoxy-5-(1-methyl-1H-pyrazol-4yl)pyridin-2-yl)amino)-3-(pyrrolidin-3-yloxy)pyrazine-2-carbonitrile]
IC50 (CHK1): < 20 nM

SMILES: CNc1cc(Nc2cnc(C#N)c(O[C@@H]3CCNC3)n2)ncc1-c1cnn(C)c1 [PAPC-B-03, (R)-5-((5-(1-Methyl-1H-pyrazol-4-yl)-4-(methylamino)pyridin-2-yl)amino)-3-(pyrrolidin-3-yloxy)pyrazine-2-carbonitrile]
IC50 (HT29 cells): < 500 nM

SMILES: CNc1cc(Nc2cnc(C#N)c(O[C@@H]3CCN(C)C3)n2)ncc1-c1cnn(C)c1 [PAPC-B-05, (R)-5-((5-(1-Methyl-1H-pyrazol-4-yl)-4-(methylamino)pyridin-2-yl)amino)-3-((1-methylpyrrolidin-3-yl)oxy)pyrazine-2-carbonitrile]
IC50 (CHK1): < 20 nM

SMILES: CNc1cc(Nc2cnc(C#N)c(O[C@@H]3CCNC3)n2)ncc1C#CC(C)(C)O [PAPC-B-08, (R)-5-((5-(3-Hydroxy-3-methylbut-1-yn-1-yl)-4-(methylamino)pyridin-2-yl)amino)-3-(pyrrolidin-3-yloxy)pyrazine-2-carbonitrile]
IC50 (CHK1; [3]): < 20 nM
concentration at 1 h [2]: ≥ 10 nM
